Legend:
[1] = target: T1, ACP-CCPGCC (tetracysteine version of Acyl Carrier protein) (Escherichia coli, UniProt P0A6A8); assay: FlAsH-EDT2 labeling of in vitro synthesised protein, SDS-PAGE, UV light box; type: binding; conditions: 10 μM in LDS sample buffer, 70° C. 10 minutes; control; FIG. 14
T1 construct: made in house; host or cells: Cell-free: Expressway in vitro protein synthesis kit (S30 E. coli extract)
Description: In vitro protein synthesis was carried out using the Expressway™ in vitro protein synthesis kit (Invitrogen, Carlsbad, Calif., Catalog #K9600-02). Following the manufacture's protocol 1 μg of AcpS vector DNA was added to a total volume of 50 μL of S30 E. coli extract and reaction buffer. As a control, a tetracysteine (CCPGCC) (SEQ. ID NO: 53) version of Acyl Carrier protein (ACP) (SEQ. ID NO: 7) was also expressed via the Expressway™ kit. The reaction was placed at 37° C. with 225 rpm shaking for two hours. After incubation 5 μL of RNase A was added to the reaction, after which an additional 15 minute incubation at 37° C. was performed. Protein from the in vitro protein synthesis reaction was prepared for SDS-PAGE analysis through an acetone precipitation procedure. 5 μl of reaction was added to 20 μL of 100% acetone. After mixing well the acetone solution was centrifuged for 5 minutes at room temperature in a microcentrifuge at 12,000 rpm. The supernatant was removed and the pellet was allowed to dry for 5 minutes. The pellet was resuspended in a 50 μL volume of LDS sample buffer (Invitrogen, Carlsbad, Calif., Catalog #NP0007) containing 10 μM FlAsH-EDT2. The samples were heated to 70° C. for 10 minutes and 10 μL of the samples were then loaded onto a 4-12% NUPAGE® pre-cast gel (Invitrogen, Carlsbad, Calif.) using MES running buffer. […]

SlyD-trunc171 = target: T2, SlyD-trunc171 (Escherichia coli, UniProt P0A9K9); assay: Binding mode: FlAsH-EDT2 labeling of in vitro synthesised SlyD versions, SDS-PAGE; conditions: 10 μM in LDS sample buffer; FIG. 15
T2 construct: a hexahistidine tagged version of SlyD truncated after position 171 (SlyD-trunc171); made in house; host or cells: Cell-free: Expressway in vitro protein synthesis kit (S30 E. coli extract)
T2 sequence (P0A9K9 with tags, fused parts or gaps): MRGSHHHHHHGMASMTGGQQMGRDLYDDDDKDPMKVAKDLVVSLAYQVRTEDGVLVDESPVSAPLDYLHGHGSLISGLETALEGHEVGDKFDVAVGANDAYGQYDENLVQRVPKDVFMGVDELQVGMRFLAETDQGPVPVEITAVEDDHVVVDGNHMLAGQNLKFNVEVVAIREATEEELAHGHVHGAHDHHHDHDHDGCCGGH
Description: (§1) The mode of binding of a biarsenical to a target sequence was examined using the Expressway™ in vitro protein synthesis kit (Invitrogen, Carlsbad, Calif.) and SDS-PAGE. Following the manufacture's protocol 1 μg of SlyD+His tag (SEQ. ID NO: 8), SlyD-C167A/C168A (SEQ. ID NO: 9), and SlyD-trunc171 (SEQ. ID NO: 10) vector DNAs were added to a total volume of 50 μL of S30 E. coli extract and reaction buffer. The reaction was placed at 37° C. with 225 rpm shaking for two hours. After incubation 5 μL of RNase A was added to the reaction, after which an additional 15 minute incubation at 37° C. was performed. Protein from the in vitro protein synthesis reaction was prepared for SDS-PAGE analysis through an acetone precipitation procedure. 5 μl of reaction was added to 20 μL of 100% acetone. After mixing well the acetone solution was centrifuged for 5 minutes at room temperature in a microcentrifuge at 12,000 rpm. The supernatant was removed and the pellet was allowed to dry for 5 minutes. The pellet was resuspended in a 50 μL volume of LDS sample buffer (Invitrogen, Carlsbad, Calif.) containing 10 μM FlAsH-EDT2. The samples were heated to 70° C. for 10 minutes and 10 μL of the samples were then loaded onto a 4-12% NuPAGE® pre-cast gel (Invitrogen, Carlsbad, Calif., Catalog #NP0239 Box) using MES running buffer. The gel was electrophoresed at 200 volts for about 30 minutes. Immediately following electrophoresis the gel was removed from the cassette and visualized on a UV light box.

SlyD+His tag = target: T3, SlyD+His tag (Escherichia coli, UniProt P0A9K9); assay: as above; conditions: 10 μM in LDS sample buffer; FIG. 15
T3 construct: Lane 1 is full length, hexahistidine tagged SlyD (SlyD+His tag); made in house; host or cells: Cell-free: Expressway in vitro protein synthesis kit (S30 E. coli extract)
T3 sequence (P0A9K9 with tags, fused parts or gaps): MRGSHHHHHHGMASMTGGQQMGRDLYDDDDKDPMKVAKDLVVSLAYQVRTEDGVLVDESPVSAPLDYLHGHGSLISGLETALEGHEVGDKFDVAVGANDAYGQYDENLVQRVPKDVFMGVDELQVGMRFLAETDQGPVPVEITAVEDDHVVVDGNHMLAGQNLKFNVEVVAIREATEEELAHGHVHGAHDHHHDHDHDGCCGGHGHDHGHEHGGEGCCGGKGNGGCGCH
Description: as §1

SlyD-C167A/C168A = target: T4, SlyD-C167A/C168A (Escherichia coli, UniProt P0A9K9, C167A/C168A); assay: as above; conditions: 10 μM in LDS sample buffer; FIG. 15
T4 construct: Lane 2 is full length, hexahistidine tagged SlyD with two point mutations; made in house; host or cells: Cell-free: Expressway in vitro protein synthesis kit (S30 E. coli extract)
T4 sequence (P0A9K9 with tags, fused parts or gaps C167A/C168A): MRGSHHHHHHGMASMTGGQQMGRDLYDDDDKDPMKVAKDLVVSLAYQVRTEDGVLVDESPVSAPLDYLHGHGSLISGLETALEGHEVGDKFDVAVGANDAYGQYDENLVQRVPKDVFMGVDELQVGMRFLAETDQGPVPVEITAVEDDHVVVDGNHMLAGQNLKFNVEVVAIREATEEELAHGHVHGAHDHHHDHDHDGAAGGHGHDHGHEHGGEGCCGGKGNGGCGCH
Description: as §1

ACP = target: T5, ACP (Escherichia coli, UniProt P0A6A8); assay: Specificity: labeling of a mixture of purified proteins, SDS-PAGE, laser gel scanner; type: binding; conditions: 10 μM in SDS-PAGE sample buffer; ACP:SlyD approximately 2:1; FIG. 17
T5 construct: inferred for this product (C); purchased Invitrogen, Madison, Wis; P3080
T5 sequence (P0A6A8 with tags, fused parts or gaps): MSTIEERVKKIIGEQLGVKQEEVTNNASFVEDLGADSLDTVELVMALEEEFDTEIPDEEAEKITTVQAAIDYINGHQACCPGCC
Description: ACP (Invitrogen, Madison, Wis., Catalog #P3080) was mixed at approximately 2:1 molar ratio with SlyD-His tag. The proteins were put in SDS-PAGE sample buffer supplemented with 10 μM FlAsH-EDT2, Cy3-EDT2, or Cy5-EDT2 and electrophoresed at 150 volts on a 4-20% Tris-glycine pre-cast Novex gel (Invitrogen, Carlsbad, Calif.). Immediately following electrophoresis the gel was imaged on a Fuji Film FLA 5000 laser gel scanner. […] Therefore, the SlyD tetracysteine sequence (SEQ. ID NO: 5) uniquely binds to biarsenical molecules and not to […].

[2] = target: T6, AcpS+4Cys (SlyD tetracysteine sequence […] on AcpS) (Escherichia coli, UniProt P24224); assay: FlAsH-EDT2 labeling of in vitro synthesised protein, SDS-PAGE, UV light box; type: binding; conditions: 10 μM in LDS sample buffer, 70° C. 10 minutes; compared with CCPGCC; FIG. 14
T6 construct: made in house; host or cells: Cell-free: Expressway in vitro protein synthesis kit, S30 E. coli extract, from a pRSET vector
T6 sequence (P24224 with tags, fused parts or gaps): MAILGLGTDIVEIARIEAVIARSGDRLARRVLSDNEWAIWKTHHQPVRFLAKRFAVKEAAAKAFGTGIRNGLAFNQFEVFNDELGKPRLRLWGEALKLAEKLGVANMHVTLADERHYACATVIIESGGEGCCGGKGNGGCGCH
Source text: A target sequence that includes the SlyD (SEQ. ID NO: 4) tetracysteine sequence, CCGGKGNGGCGC (SEQ. ID NO: 5) was introduced onto the Carboxy-terminus of Acyl Carrier Protein S (AcpS). Since AcpS has only one endogenous cysteine amino acid and since AcpS is a robust stable protein, a substitution at the Carboxy-terminus could be made without altering the solubility of the properly folded protein. […] ID NO: 6. The mutated AcpS is referred to as AcpS+4Cys. The substitutions were generated using polymerase chain reaction with primers specific for the encoding the expression of the desired tetracysteine sequence. The nucleic acid sequence encoding the cysteine substituted AcpS was inserted into the pRSET vector (Invitrogen, Carlsbad, Calif., Catalog #V351-20) using restriction sites inherent to the vector's multiple cloning site. After amplification in DH5 bacteria, the vector was expressed using in vitro transcription and translation. See also, U.S. Provisional Patent Application No. 60/614,590, filed Oct. 1, 2004 and U.S. patent application Ser. No. 10/954,951, filed Oct. 1, 2004, incorporated by reference herein in their entireties, disclosing additional compositions and methods for in vitro transcription and translation.
In vitro protein synthesis was carried out using the Expressway™ in vitro protein synthesis kit (Invitrogen, Carlsbad, Calif., Catalog #K9600-02). […]

[3] = target: T7, SlyD+His tag (SlyD tetracysteine sequence) (Escherichia coli, UniProt P0A9K9); assay: Specificity: labeling of a mixture of purified proteins, SDS-PAGE, laser gel scanner; type: binding; conditions: 10 μM in SDS-PAGE sample buffer; ACP:SlyD approximately 2:1; FIG. 17
T7 construct: made in house; host or cells: E. coli BL21 (DE3), pRSET vector, Ni-NTA purified
T7 sequence (P0A9K9 with tags, fused parts or gaps): as the sequence (P0A9K9 with tags, fused parts or gaps C167A/C168A) above, with A200C, A201C counted along it
Description: The native SlyD sequence (SEQ. ID NO: 4) was cloned into the pRSET vector (Invitrogen, Carlsbad, Calif.) using standard molecular biology techniques. Purified protein was produced from this vector by first transforming BL21 (DE3) cells (Invitrogen, Carlsbad, Calif., Catalog #C6010-03) and plated on LB-ampicillin plates. A single colony was selected and grown in one liter of liquid LB broth to a density of 1 O.D. and 1 mM IPTG was added to induce protein expression. After three hours of protein induction the culture was harvested by centrifugation at 10,000×g for 5 minutes at 4° C. The cell pellet was resuspended in 50 mM HEPES (pH 7.5), 140 mM NaCl and sonicated on ice for a total of two minutes. The E. coli lysate was separated by centrifugation at 25,000×g for 20 minutes at 4° C. The supernatant contained the soluble protein and consequently it was loaded onto a Ni^2+-NTA column equilibrated in 50 mM HEPES (pH 7.5), 140 mM NaCl buffer. The column was washed with three column volumes of 50 mM HEPES (pH 7.5), 140 mM NaCl and non-specific binding proteins were removed by washing with 50 mM HEPES (pH 7.5), 140 mM NaCl, and 20 mM Imidazole. To elute the desired hexahistidine tagged SlyD, a solution of 50 mM HEPES (pH 7.5), 140 mM NaCl, and 250 mM Imidazole was added to the column. The protein eluted at greater than 90% purity. […]

T1 sequence (P0A6A8 with tags, fused parts or gaps): as the sequence (P0A6A8 with tags, fused parts or gaps) above

In the case of `O=C(O)c1ccccc1-c1c2ccc(=O)c([As]3SCCS3)c-2oc2c([As]3SCCS3)c(O)ccc12` [FlAsH-EDT2], the “labeling of the CCPGCC sequence (ACP)” value [1] is reported as “equivalent labeling”, the “labeling of SlyD-trunc171 (only a vicinal pair of cysteines)” value (SlyD-trunc171) is reported as “only two cysteines are required for biarsenical labeling” and the “labeling of SlyD+His tag” value (SlyD+His tag) is reported as “identical labeling”. The “labeling of SlyD-C167A/C168A” value (SlyD-C167A/C168A) was “identical labeling”, the “binding/labeling of ACP” value (ACP) was “binds to both SlyD+His tag and ACP” and the “labeling of the CCGGKGNGGCGC sequence (AcpS+4Cys)” value [2] was “equivalent labeling”. For the same molecule, the “binding/labeling of SlyD+His tag” value [3] was “binds to both SlyD+His tag and ACP”.

From US8133709B2, “Target sequences for synthetic molecules” (Life Technologies Corporation, priority 2003, dated 2012)
